Experimental data reported in patent US8748430B2, “Pyrrolidin-3yl-methylamine quinoxaline derivatives” (Hoffmann-La Roche Inc, priority 2008, dated 2014).

Molecular target: T1, human orexin-2 (hOX2) receptor (Homo sapiens, UniProt O43614)
T1 construct: expressed in transfected cells
T1 sequence (O43614 1-444): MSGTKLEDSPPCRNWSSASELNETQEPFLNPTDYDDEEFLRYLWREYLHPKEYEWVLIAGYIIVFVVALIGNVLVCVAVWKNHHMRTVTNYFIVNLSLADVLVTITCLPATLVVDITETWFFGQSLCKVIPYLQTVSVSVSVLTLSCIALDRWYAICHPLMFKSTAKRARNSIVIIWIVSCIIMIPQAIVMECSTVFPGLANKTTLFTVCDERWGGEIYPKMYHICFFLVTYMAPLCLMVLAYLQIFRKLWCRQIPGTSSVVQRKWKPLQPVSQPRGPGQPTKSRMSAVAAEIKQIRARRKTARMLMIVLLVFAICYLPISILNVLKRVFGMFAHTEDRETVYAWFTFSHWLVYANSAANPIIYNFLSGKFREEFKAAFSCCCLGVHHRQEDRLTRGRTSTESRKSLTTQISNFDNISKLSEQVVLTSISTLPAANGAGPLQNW
Test: Intracellular Ca2+ mobilization assay (FLIPR), antagonism of orexin-A at EC80
Assay type: cell-based
Conditions: CHO(dHFr-) cells stably expressing hOX2; orexin-A at EC80 as agonist; antagonist applied 25 min before; Kb=IC50/(1+[A]/EC50); read-out: Kb (μM) OX2R (human)
Description: Intracellular Ca^2+ Mobilization Assay
The Chinese Hamster Ovary (dHFr-) mutant cell line stably expressing human orexin-1 (hOX1) or human orexin-2 (hOX2) receptors were maintained in Dulbecco's Modified Eagle Medium (1×) with GlutaMax™1, 4500 mg/L D-Glucose and Sodium Pyruvate (Catalog No. 31966-021, Invitrogen, Carlsbad, Calif.), 5% dialyzed fetal calf serum (Catalog No. 26400-044), 100 μg/ml penicillin and 100 μg/ml streptomycin. The cells were seeded at 5×10^4 cells/well in the poly-D-lysine treated, 96-well, black/clear-bottomed plates (Catalog No. BD356640, BD Biosciences, Palo Alto, Calif.). 24 h later, the cells were loaded for 1 h at 37° C. with 4 μM Flou-4 acetoxymethyl ester (Catalog No. F-14202, Molecular Probes, Eugene, Oreg.) in FLIPR buffer (1×HBSS, 20 mM HEPES, 2.5 mM Probenecid). Hanks' Balanced Salt Solution (HBSS) (10×) (catalog No. 14065-049) and HEPES (1M) (catalog No. 15630-056) were purchased from Invitrogen, Carlsbad, Calif. Probenecid (250 mM) (catalog No. P8761) was from Sigma, Buchs, Switzerland. The cells were washed five times with FLIPR buffer to remove excess dye and intracellular calcium mobilization, [Ca^2+]i were measured using a Fluorometric Imaging Plate Reader (FLIPR-96, Molecular Devices, Menlo Park, Calif.) as described previously (Malherbe et al., Mol. Pharmacol., 64, 823-832, 2003). Orexin A (catalog No. 1455, Toris Cookson Ltd, Bristol, UK) was used as agonist. Orexin A ([…] stock solution in DMSO) was diluted in FLIPR buffer+0.1% BSA. The EC50 and EC80 values of orexin-A were measured daily from standard agonist concentration-response curves in CHO(dHFr-)-OX1R and -OX2R cell lines. All compounds were dissolved in 100% DMSO. Inhibition curves were determined by addition of 11 concentrations (0.0001-10 μM) of inhibitory compounds and using EC80 value of orexin-A as agonist (a concentration which gave 80% of max agonist response, determined daily). The antagonists were applied 25 min (incubation at 37° C.) before the application of the agonist. Responses were measured as peak increase in fluorescence minus basal, normalized to the maximal stimulatory effect induced by EC80 value of orexin-A or orexin-B. Inhibition curves were fitted according to the Hill equation: y=100/(1+(x/IC50)^nH), where nH=slope factor using Excel-fit 4 software (Microsoft). Kb values were calculated according to the following equation Kb=IC50/(1+[A]/EC50) where A is the concentration of agonist added which is very close to agonist EC80 value, and IC50 and EC50 values were derived from the antagonist inhibition and orexin-A or B agonist curves, respectively.

For O=C(c1ccccc1OC(F)(F)C(F)F)N1CC[C@@H](CNc2cnc3cc(Cl)ccc3n2)C1 [Example 27, {(S)-3-[(6-Chloro-quinoxalin-2-ylamino)-methyl]-pyrrolidin-1-yl}-[2-(1,1,2,2-tetrafluoro-ethoxy)-phenyl]-methanone], the Kb was 0.0839 µM.
With Cc1ccc(C(F)(F)F)c(C(=O)N2CC[C@@H](CNc3cnc4cc(Cl)ccc4n3)C2)c1 [Example 28, {(S)-3-[(6-Chloro-quinoxalin-2-ylamino)-methyl]-pyrrolidin-1-yl}-(5-methyl-2-trifluoromethyl-phenyl)-methanone] the Kb was 0.331 µM.
Cc1onc(-c2ccccc2)c1C(=O)N1CC[C@@H](CNc2cnc3cc(Cl)ccc3n2)C1 [Example 29, {(S)-3-[(6-Chloro-quinoxalin-2-ylamino)-methyl]-pyrrolidin-1-yl}-(5-methyl-3-phenyl-isoxazol-4-yl)-methanone] showed a Kb of 0.407 µM.
Work on O=C(c1cnoc1-c1ccccc1)N1CC[C@@H](CNc2cnc3cc(Cl)ccc3n2)C1 [Example 30, {(S)-3-[(6-Chloro-quinoxalin-2-ylamino)-methyl]-pyrrolidin-1-yl}-(5-phenyl-isoxazol-4-yl)-methanone] yielded a Kb of 0.34 µM.
Compound Cc1ccc(Cl)c(C(=O)N2CC[C@@H](CNc3cnc4cc(Cl)ccc4n3)C2)c1 [Example 31, (2-Chloro-5-methyl-phenyl)-{(S)-3-[(6-chloro-quinoxalin-2-ylamino)-methyl]-pyrrolidin-1-yl}-methanone] has a Kb of 0.539 µM.
Work on COc1ccc(C)cc1C(=O)N1CC[C@@H](CNc2cnc3cc(Cl)ccc3n2)C1 [Example 32, {(S)-3-[(6-Chloro-quinoxalin-2-ylamino)-methyl]-pyrrolidin-1-yl}-(2-methoxy-5-methyl-phenyl)-methanone] yielded a Kb of 0.185 µM.
